Read-outs that look alike come from different tables or passages of the source.
Key:
[1] = target: T1, GST-cGB-PDE5 fusion protein (cGMP binding sites of human PDE5A) (Homo sapiens, UniProt O76074); test: cGMP binding assay with GST-cGB-PDE5 fusion protein; details: for competition with cGMP binding to GST-cGB-PDE5 at high concentration: compound 100 μM, cGMP 2 μM
T1 construct: made in house; host or cells: E. coli BL21 (DE3)
Description: 5′-3′, Inc. kits for total RNA followed by oligo (dT) column purification of mRNA are used with HT-29 cells. […] It is then cloned into pGEX-5X-3 glutathione-S-transferase (GST) fusion vector (Pharmacia Biotech )with tac promoter, and EcoRI and XhoI cut sites. The fusion vector is then transfected into E. Coli BL21 (DE3) bacteria (Invitrogen). The transfected BL21 bacteria is grown to log phase, and then IPTG is added as an inducer. The induction is carried at 20° C. for 24 hrs. The bacteria are harvested and lysed. The soluble cell lysate is incubated with GSH conjugated Sepharose 4B (GSH-Sepharose 4B). The GST-cGB-PDE5 fusion protein can bind to the GSH-Sepharose beads, and the other proteins are washed off from beads with excessive cold PBS.
Then, the mixture is transferred to Brandel MB-24 cell harvester with GF/B as the filter membrane followed by 2 washes with 10 mL of cold 5 mM potassium buffer(pH 6.8). The membranes are then cut out and transferred to scintillation vials followed by the addition of 1 mL of H2O and 6 mL of Ready Safe™ liquid scintillation cocktail to each vial. The vials are counted on a Beckman LS 6500 scintillation counter.
The quenching by filter membrane or other debris are also calibrated.

28-day study in rats = format: in vivo; details: 28 days
Description: A 28-day study in rats was also carried out at 0, 50, 500 and 2000 mg/kg/day.

[2] = acute toxicity study in rats; format: in vivo
[3] = long-term safety assessment study in rats, 91 days; format: in vivo; details: males and females at 200 and 500 mg/kg/day
[4] = system: TNF-α secreted by TPA-induced U937 cells; test: TNF-α immunoassay on U937 cell culture media; format: cell-based; details: cell culture media (FIG. 12)
Description: One function of macrophages is to modulate the activity of other inflammatory cells through various cytokine molecules.
TNF-α levels in the cell culture media were determined by using the TNF-α Immunoassay from R&D Systems (Cat. # DTA50) according to the manufacturer's protocol.

[5] = 91-day oral study in dogs; format: in vivo; details: 91 days, 150 and 300 mg/kg/day
[6] = seven-day dose-range finding study in rats; format: in vivo; details: seven days, 2000 mg/kg/day
[7] = acute and seven-dose toxicity in dogs (capsules); format: in vivo
U937 cells = test: apoptosis induction of U937 cells (active caspase 3 indirect immunofluorescence); format: cell-based; details: 1 μM
Description: U937 cells (from ATCC Rockville, Md.) were grown in RPMI media supplemented with 5% FCS, glutamine, antibiotic/antimycotic and sodium pyruvate. Total RNA was isolated from two U937 cultures, one treated with 5 nM TPA for 48 hours and one grown in normal media as listed above, using the Rouche High Pure RNA Isolation Kit (cat#1 828 665) as per manufacturers protocol. cDNA was then synthesized from the total RNA using GibcoBRL SuperscriptII (Cat #18064-022) reverse transcriptase as per manufacturers protocol. The resulting cDNA was used as a template for RT-PCR reactions using primer sets specific for PDE2 (forward: […], reverse: […]) or PDE5 (forward: […], reverse: […]). mRNA for PDE2 and 5 were both present in the untreated U937 cells. Upon treatment with TPA, the relative amounts of PDE2 mRNA increased 5 fold. Therefore, U937 cells treated with TPA and driven to differentiate into an activated macrophage like state have elevated levels of PDE2 mRNA (see FIG. 1).
The presence of PDE2 and PDE5 protein within U937 cells was confirmed by indirect immunofluorescence (IIF). U937 cells were cultured as above. Two U937 cultures, one grown in the presence of 5 nM TPA for 48 hours and one grown in normal media were processed. […]
The level of apoptosis in U937 cells was quantified by scoring 500 consecutive cells for the presence of active caspase 3. […]

PDE5 = target: T2, PDE5 (Homo sapiens, UniProt O76074); test: cGMP PDE inhibition, PDE5; format: biochemical
T2 construct: partially purified cGMP-specific PDE isolated from HT-29 cells; endogenous in cells; host or cells: HT-29
Description: The mixture is incubated at 30° C. for 10 minutes with isolated PDE2 and/or PDE5. Reactions are terminated, for example, by boiling the reaction mixture for 75 seconds. After cooling on ice, 100 μl of 0.5 mg/mL snake venom (O. Hannah venom available from Sigma) is added and incubated for 10 minutes at 30° C. This reaction is then terminated by the addition of an alcohol, e.g. 1 mL of 100% methanol. Assay samples are applied to 1 mL Dowex 1-X8 column; and washed with 1 mL of 100% methanol. The amount of radioactivity in the breakthrough and the wash from the column is combined and measured with a scintillation counter. The degree of phosphodiesterase inhibition is determined by calculating the amount of radioactivity in drug-treated reactions and comparing against a control sample (a reaction mixture lacking the tested compound but with drug solvent).
Compounds can be tested for inhibitory effect on phosphodiesterase activity using either the enzyme isolated from any tumor cell line such as HT-29 or SW-480. […] The amount of radioactivity in the breakthrough and the wash from the columns in then measured with a scintillation counter. The degree of PDE5 inhibition is determined by calculating the amount of radioactivity in drug-treated reactions and comparing against a control sample (a reaction mixture lacking the tested compound).

[8] = single, escalating dose human clinical safety study; format: in vivo; details: oral, 50 mg BID, 100 mg BID, 200 mg BID and 400 mg BED

Question: Which “competition with cGMP in binding to cGMP binding sites of GST-cGB-PDE5” value (“competition with cGMP in binding” below) ([1]; 3H-cGMP 2 μM) does the source give for `CCCCOC1C2OP(=O)(O)OCC2OC1n1cnc2c(N)ncnc21` (stereo not shown) [2′-O-butyl-cAMP] here?
Answer: did not compete

Question: Which “competition with cGMP in binding” value ([1]; 3H-cGMP 2 μM) does the source give for `CCCCOC1C2OP(=O)(O)OCC2OC1n1cnc2c(=O)[nH]c(N)nc21` (stereo not shown) [2′-O-butyl-cGMP] here?
Answer: did not compete

Question: With `CC1=C(CC(=O)NCc2ccccc2)c2cc(F)ccc2/C1=C\c1ccncc1.Cl` [Compound 38, (Z)-5-Fluoro-2-Methyl-(4-Pyridylidene)-3-(N-Benzyl)Indenylacetamide Hydrochloride] as the compound, how does the “body weight changes, ophthalmoscopic examinations, hematological and blood chemistry values and urinalysis” value (28-day study in rats) read?
Answer: unremarkable

Question: And the “liver and thyroid increases at the lower doses” value (28-day study in rats; lower doses)?
Answer: not statistically significant

Question: And the “competition with cGMP in binding” value ([1]; 3H-cGMP 2 μM)?
Answer: does not bind to the cGMP-binding site

Question: What about the “intraperitoneal LD50” value ([2]; intraperitoneal) of the same compound?
Answer: greater than 1000 mg/kg

Question: What about the “oral LD50” value ([2]; oral) of the same compound?
Answer: > 2000 mg/kg

Question: And the necropsy finding ([2]; single dose 1000 mg/kg intraperitoneally)?
Answer: mesenteric adhesions seen in some animals

Question: What about the “liver and thyroid/parathyroid weights” value [3] of the same compound?
Answer: dose-related trend to increased liver and thyroid/parathyroid weights

Question: And the “level of TNF-α secreted” value [4]?
Answer: significantly reduced

Question: What about the feces [5] of the same compound?
Answer: Orange discoloration of the feces

Question: And the effects [6]?
Answer: labored breathing and/or abnormal respiratory sounds, decreased weights gains and food consumption in male rats, and increased liver weights in female rats

Question: What about the “oral LD50” value [7] of the same compound?
Answer: greater than 1000 mg/kg

Question: What about the “apoptosis as reflected by the presence of active caspase 3 (FIG. 8)” value (U937 cells) of the same compound?
Answer: undergoing apoptosis

Question: What about the IC50 (PDE5) of the same compound?
Answer: 4 µM

Question: And the side effects [8]?
Answer: no significant side effects at any dose

Question: With `Nc1ncnc2c1ncn2[C@@H]1O[C@@H]2COP(=O)(O)O[C@H]2[C@H]1O` [Cyclic AMP] as the compound, how does the “competition with cGMP in binding” value [1] read?
Answer: did not compete

Question: Which “competition with cGMP binding to GST-cGB-PDE5 at high concentration” value [1] does the source give for `O=c1[nH]cnc2c1ncn2[C@@H]1O[C@@H]2COP(=O)(O)O[C@H]2[C@H]1O` [Cyclic IMP] here?
Answer: can partially compete

Question: For `Nc1nc2c(nc(Br)n2[C@@H]2O[C@@H]3COP(=O)(O)O[C@H]3[C@H]2O)c(=O)[nH]1` [Example 8-bromo-cGMP, 8-bromo-cGMP], which “competition with cGMP binding to GST-cGB-PDE5 at high concentration” value [1] is on record?
Answer: can partially compete

Question: With `O=C([O-])C1CCN(c2nc(NCc3ccc4c(c3)OCO4)c3cc(Cl)ccc3n2)CC1.[Na+]` [Example E4021] as the compound, how does the “competition with cGMP in binding” value ([1]; 3H-cGMP 2 μM) read?
Answer: None of the PDE5 inhibitors showed any competition

Question: For `CSc1ccc(/C=C2/C(C)=C(CC(=O)O)c3cc(F)ccc32)cc1` [Sulindac sulfide, sulindac sulfide], which “competition with cGMP in binding” value ([1]; 3H-cGMP 2 μM) is on record?
Answer: None of the PDE5 inhibitors showed any competition

Question: With `Nc1ccn([C@@H]2O[C@@H]3COP(=O)(O)O[C@H]3[C@H]2O)c(=O)n1` [cCMP, cyclic CMP] as the compound, how does the “competition with cGMP in binding” value ([1]; 3H-cGMP 2 μM) read?
Answer: did not compete

Question: Which “competition with cGMP in binding” value ([1]; 3H-cGMP 2 μM) does the source give for `O=c1ccn([C@@H]2O[C@@H]3COP(=O)(O)O[C@H]3[C@H]2O)c(=O)[nH]1` [cUMP, cyclic UMP] here?
Answer: did not compete

Question: With `CC1=C(CC(=O)O)c2cc(F)ccc2/C1=C\c1ccc(S(C)(=O)=O)cc1` [exisulind] as the compound, how does the “competition with cGMP in binding” value ([1]; 3H-cGMP 2 μM) read?
Answer: None of the PDE5 inhibitors showed any competition

Question: For `CCCOc1ccccc1-c1nc2nn[nH]c2c(=O)[nH]1` [zaprinast], which “competition with cGMP in binding” value ([1]; 3H-cGMP 2 μM) is on record?
Answer: None of the PDE5 inhibitors showed any competition

Reference: patent US20060252762A1, “Methods for treatment of multiple sclerosis” (priority 2001, published 2006)
